Experiments:
bitch = assay: Plasma progesterone and pregnancy outcome in a bitch given daily subcutaneous injections for 7 days (Example 1); assay type: in vivo, dogs
Description: A bitch was bled and the plasma progesterone measured in nanograms per milliliter versus the day of diestrus. The bitch was bled on day -8 and day -4. The plasma progesterone was 4 to 6 nanograms per milliliter on those two days. At day 1, the plasma progesterone was at 30 nanograms per milliliter and peaked at about 60 on day 9 slowly decreasing to about 30 on day 25. At day 25 the bitch started to receive daily subcutaneous 1 2 3 injections of [N-Ac-D-Nal(2) , D-p-Cl-Phe , D-Trp , D-Deh , D-Ala ] LHRH for 7 days. After the first injection the plasma progesterone level immediately dropped to 4 nanograms per milliliter. At the end of the course of treatment, the level of plasma progesterone was down below 1 nanogram per milliliter. A fetus was expelled the 5th day of treatment and a tissue mass was expelled on day 49, which was 24 days after the start of treatment.

beagle bitch [1] = assay: Single subcutaneous injection in a pregnant beagle bitch: plasma progesterone and abortion (Example 3); assay type: in vivo, dogs; conditions: single subcutaneous injection of 50 mg on the twenty-ninth day of pregnancy
Method: A beagle bitch was bred and confirmed to be pregnant by manual palpation of the uterus during the fourth week of gestation. On the twenty-ninth day of pregnancy […] was administered a single subcutaneous injection of an aqueous solution of 50 mg of [N-Ac-D-Nal(2) , D-p-C1-Phe, D-Trp , D-Deh , D-Ala ]LHRH. Immediately before injection the plasma progesterone levels was 19ng/ml and by 24 hours after injection this had declined to 3.3 ng/ml. Plasma levels of progesterone varied thereafter from day to day but were never above 6 ng/ml. Delivery of an abortus was noted on the 36th day of pregnancy.

pregnant beagle bitches = assay: Effect of time of dosing with two LHRH antagonists on pregnancy in bitches (Example 2, Table 1); assay type: in vivo, dogs; conditions: daily injection for seven days, 300 µg/kg/day
Method: Several pregnant beagle bitches were treated with one of two different LHRH antagonists by subcutaneous injection.

beagle bitch [2] = assay: Termination of estrus in a beagle bitch (Example 4); assay type: in vivo, dogs; conditions: 300 µg/kg/day for 14 days started on day 2 (entering estrus)
Method: A beagle bitch was identified with a slight sanguineous vaginal discharge (day 1 of the experiment). Microscopic evaluation of vaginal cytology confirmed the bitch to be in proestrus. […] She was immediately started on a course of treatment of 300 µg/kg/day for 14 days of [N-Ac-D-Nal(2) , D-p-Cl-Phe , D-Trp , D-Deh ,D-Ala ]LHRH.
The vaginal discharge diminished and was last noted on day 5. By day 6 the bitch was confirmed by vaginal cytology to have reentered diestrus.

pregnant cats = assay: Seven-day subcutaneous minipump infusion in pregnant cats: plasma progesterone and pregnancy (Example 5); assay type: in vivo; conditions: for Plasma level of progesterone: 300 μg/kg/day for seven days
Method: Female cats were bred and 15-18 days later were implanted subcutaneously with an Alzet^8 minipump filled with a solution of [N-Ac-D-Nal(2) , D-p-Cl-Phe , D-Trp , D-Deh ,D-Ala ]LHRH in propylene glycol at a concentration sufficient to deliver 300 µg/kg/day. The pumps were removed after seven days. No effect of treatment on circulating levels of progesterone could be discerned in daily plasma samples.

With “N-Ac-D-Nal(2)-D-pCL-Phe-D-Trp-Ser-Tyr-D-Deh-Leu-Arg-ProD-Ala” the “level of plasma progesterone at the end of the course of treatment” value (bitch; bitch, daily subcutaneous injections for 7 days starting day 25 of diestrus) was “below 1 nanogram per milliliter”, the “plasma progesterone level after the first injection” value (bitch; bitch, daily subcutaneous injections for 7 days starting day 25 of diestrus, about 30 on day 25 before treatment) was 4 nanograms per milliliter and the “tissue mass expelled, day” value (bitch; day of diestrus, 24 days after the start of treatment) was 49. The “plasma progesterone level 24 hours after injection” value (beagle bitch [1]; 19ng/ml immediately before injection) was 3.3 ng/mL, the “plasma levels of progesterone thereafter” value (beagle bitch [1]; later than 24 hours, varied from day to day) was no more than 6 ng/mL and the “COMMENT (pregnancy outcome)” value (pregnant beagle bitches; dog 1, treatment on days 36-42 of pregnancy) was “Aborted on days 39-41 of pregnancy”. The “COMMENT (pregnancy outcome)” value (pregnant beagle bitches; dog 2, treatment on days 32-38 of pregnancy) was “Aborted on day 35 of pregnancy”, the “attractiveness to stud males” value (beagle bitch [2]) was “not attractive to stud males” and the “reentered diestrus confirmed by vaginal cytology, day of the experiment” value (beagle bitch [2]) was no more than 6. For the same substance, the sexual receptivity (beagle bitch [2]) was “no sign of sexual receptivity”, the “vaginal discharge last noted, day of the experiment” value (beagle bitch [2]) was 5 and the “Plasma level of progesterone” value (pregnant cats; Cat 1, day 0 from treatment) was 4.0 ng/mL. The “Plasma level of progesterone” value (pregnant cats; Cat 1, day 1 from treatment) was 2.7 ng/mL, the “Plasma level of progesterone” value (pregnant cats; Cat 1, day 2 from treatment) was 4.3 ng/mL and the “Plasma level of progesterone” value (pregnant cats; Cat 1, day 3 from treatment) was 4.0 ng/mL. For the same substance, the “Plasma level of progesterone” value (pregnant cats; Cat 1, day 4 from treatment) was 4.4 ng/mL, the “Plasma level of progesterone” value (pregnant cats; Cat 1, day 5 from treatment) was 3.8 ng/mL and the “Plasma level of progesterone” value (pregnant cats; Cat 1, day 6 from treatment) was 5.7 ng/mL. For the same substance, the “Plasma level of progesterone” value (pregnant cats; Cat 1, day 7 from treatment) was 3.3 ng/mL, the “Plasma level of progesterone” value (pregnant cats; Cat 1, day 8 from treatment) was 6.5 ng/mL and the “Plasma level of progesterone” value (pregnant cats; Cat 1, day 9 from treatment) was 6.7 ng/mL. For the same substance, the “Plasma level of progesterone” value (pregnant cats; Cat 1, day 10 from treatment) was 5.2 ng/mL, the “Plasma level of progesterone” value (pregnant cats; Cat 1, day -1 from treatment (before treatment)) was 2.0 ng/mL and the “Plasma level of progesterone” value (pregnant cats; Cat 1, day -2 from treatment (before treatment)) was 4.5 ng/mL. The “Plasma level of progesterone” value (pregnant cats; Cat 2, day 0 from treatment) was 2.3 ng/mL, the “Plasma level of progesterone” value (pregnant cats; Cat 2, day 1 from treatment) was 4.1 ng/mL and the “Plasma level of progesterone” value (pregnant cats; Cat 2, day 2 from treatment) was 5.2 ng/mL. For the same substance, the “Plasma level of progesterone” value (pregnant cats; Cat 2, day 3 from treatment) was 3.9 ng/mL, the “Plasma level of progesterone” value (pregnant cats; Cat 2, day 4 from treatment) was 4.2 ng/mL and the “Plasma level of progesterone” value (pregnant cats; Cat 2, day 5 from treatment) was 4.2 ng/mL. The “Plasma level of progesterone” value (pregnant cats; Cat 2, day 6 from treatment) was 6.3 ng/mL, the “Plasma level of progesterone” value (pregnant cats; Cat 2, day 7 from treatment) was 5.5 ng/mL and the “Plasma level of progesterone” value (pregnant cats; Cat 2, day 8 from treatment) was 6.1 ng/mL. The “Plasma level of progesterone” value (pregnant cats; Cat 2, day 9 from treatment) was 7.3 ng/mL, the “Plasma level of progesterone” value (pregnant cats; Cat 2, day 10 from treatment) was 6.7 ng/mL and the “Plasma level of progesterone” value (pregnant cats; Cat 2, day -1 from treatment (before treatment)) was 3.0 ng/mL. The “Plasma level of progesterone” value (pregnant cats; Cat 2, day -2 from treatment (before treatment)) was 4.3 ng/mL, the pregnancy outcome (pregnant cats; cats implanted 15-18 days after breeding, minipump 300 µg/kg/day for seven days) was “All treated cats continued to normal uneventful term delivery” and the “effect of treatment on circulating levels of progesterone” value (pregnant cats; cats implanted 15-18 days after breeding, minipump 300 µg/kg/day for seven days, daily plasma samples) was “No effect”.
